# Reference: the OPERA property sets (Mansouri et al. 2018)
row,logP,SMILES
1,2.48,NN(C(=O)c1ccc([N+](=O)[O-])cc1)c1ccccc1
2,1.36,Cc1ccc(C(=O)N(C)N)cc1
3,3.01,Cc1ccc(C(=O)N(C)NC(=S)Nc2ccccc2)cc1
4,3.87,O=C(c1ccc([N+](=O)[O-])cc1)N(NC(=S)Nc1ccccc1)c1ccccc1
5,2.3,NN(C(=O)c1ccccc1)c1ccccc1
6,2.68,CN(NC(=S)Nc1ccccc1)C(=O)c1ccc([N+](=O)[O-])cc1
7,2.47,CN(NC(=S)Nc1ccccc1)C(=O)c1ccccc1
8,1,COc1ccc(C(=O)N(C)N)cc1
9,3.73,O=C(c1ccccc1)N(NC(=S)Nc1ccccc1)c1ccccc1
10,0.7,CN(N)C(=O)c1ccccc1
11,2.56,COc1ccc(C(=O)N(C)NC(=S)Nc2ccccc2)cc1
12,3,Cc1ccc(C(=O)N(N)c2ccccc2)cc1
13,0.75,CN(N)C(=O)c1ccc([N+](=O)[O-])cc1
14,3.08,CC=NN(C(=O)c1ccc([N+](=O)[O-])cc1)c1ccccc1
15,3.94,COc1ccc(C(=O)N(NC(=S)Nc2ccccc2)c2ccccc2)cc1
16,2.83,COc1ccc(C(=O)N(N)c2ccccc2)cc1
17,4.08,Cc1ccc(C(=O)N(NC(=S)Nc2ccccc2)c2ccccc2)cc1
18,3.18,CC=NN(C(=O)c1ccc(OC)cc1)c1ccccc1
19,2.76,CC=NN(C(=O)c1ccccc1)c1ccccc1
20,3.6,CC=NN(C(=O)c1ccc(C)cc1)c1ccccc1
